Broadly, the Ki is a measure of affinity in units of concentration, obtained from inhibition or displacement. Read a high Ki as a looser hold on the target.

Test [1] deals with T1, MCR-C (C-terminal domain of malonyl-CoA reductase) (Chloroflexus aurantiacus, UniProt A9WIU3). The test is described as follows: NADPH absorbance at […] nm, product inhibition. It counts as biochemical.
Test [2] concerns the target T1, MCR-C (C-terminal domain of malonyl-CoA reductase). The test can be described thus: NADPH absorbance at […] nm, dead-end inhibition. It counts as biochemical.

On to `NC(=O)c1ccc[n+]([C@@H]2O[C@H](COP(=O)(O)OP(=O)(O)OC[C@H]3O[C@@H](n4cnc5c(N)ncnc54)[C@H](OP(=O)(O)O)[C@@H]3O)[C@@H](O)[C@H]2O)c1` [NADP^+], for which the inhibition constant (Ki) in test [1] was determined as 104 ± 15 µM.
For the compound `O=CC(=O)O` [glyoxylic acid], the inhibition constant (Ki) in test [2] was found to be 6 ± 0.8 µM.
The compound `CC(C)(COP(=O)(O)OP(=O)(O)OC[C@H]1O[C@@H](n2cnc3c(N)ncnc32)[C@H](O)[C@@H]1OP(=O)(O)O)[C@@H](O)C(=O)NCCC(=O)NCCS` [CoA] gave an inhibitory constant (Ki) in test [1] of 238 ± 14 µM.

The values above are taken from paper PMC12786355 (Biochimica et biophysica acta. Proteins and proteomics, 2024).
